Test results reported in patent publication US20260158011A1 (Achieve Life Sciences, Inc., priority 2023, published 2026).
Marks after values point to notes of the source that are not given here.

Tested on: adult e-cigarette users
Description: A second measurement consisted of biochemically verified continuous vaping abstinence at any time during treatment, with vaping abstinence at Week 3-6 or Week 6-9 for of cytisinicline treatment vs placebo. 7-day point prevalence rates were compared for vaping abstinence (Week 2 to 12) (FIG. 62). An additional measurement included reduction in daily vaping as measured by cotinine, where cytisinicline treatment vs placebo for a reduction in nicotine vaping using weekly quantitative cotinine levels from Week 2 to Week 12. Safety was assessed by adverse effects and serious adverse effects, considering number, severity, and attribution to study drug.

[1] = by Preferred Term table, 12 Weeks, N = 106, Safety Set
[2] = overall summary, 12 Weeks, N = 106, Safety Set
[3] = possibly, probably or definitely related, 12 Weeks, N = 106, Safety Set

O=c1cccc2n1C[C@@H]1CNC[C@H]2C1 [cytisine, (−)-Cytisine]
TEAE Migraine, subjects n (12 Weeks, N = 106, Safety Set): 1 n | TEAE Musculoskeletal chest pain, subjects % (12 Weeks, N = 106, Safety Set): (0.9) % | TEAE Musculoskeletal chest pain, subjects n (12 Weeks, N = 106, Safety Set): 1 n | TEAE Nasal congestion, subjects (12 Weeks, N = 106, Safety Set): 0 n (%) | TEAE Nasopharyngitis, subjects (12 Weeks, N = 106, Safety Set): 0 n (%) | TEAE Nausea, subjects % (12 Weeks, N = 106, Safety Set): (4.7) % | TEAE Nausea, subjects n (12 Weeks, N = 106, Safety Set): 5 n | TEAE Neck pain, subjects % (12 Weeks, N = 106, Safety Set): (1.9) % | TEAE Neck pain, subjects n (12 Weeks, N = 106, Safety Set): 2 n | TEAE Oropharyngeal pain, subjects % (12 Weeks, N = 106, Safety Set): (1.9) % | TEAE Oropharyngeal pain, subjects n (12 Weeks, N = 106, Safety Set): 2 n | TEAE Otitis media, subjects (12 Weeks, N = 106, Safety Set): 0 n (%) | TEAE Outcome Fatal (12 Weeks, N = 106, Safety Set): 0 n (%)/Events | TEAE Outcome Not recovered/Not resolved, Events (12 Weeks, N = 106, Safety Set): 23 Events | TEAE Outcome Not recovered/Not resolved, subjects (12 Weeks, N = 106, Safety Set): 14 (13.2) n (%) | TEAE Outcome Recovered/Resolved with sequelae (12 Weeks, N = 106, Safety Set): 0 n (%)/Events | TEAE Outcome Recovered/Resolved, Events (12 Weeks, N = 106, Safety Set): 93 Events | TEAE Outcome Recovered/Resolved, subjects (12 Weeks, N = 106, Safety Set): 47 (44.3) n (%) | TEAE Outcome Recovering/Resolving, Events (12 Weeks, N = 106, Safety Set): 3 Events | TEAE Outcome Recovering/Resolving, subjects (12 Weeks, N = 106, Safety Set): 3 (2.8) n (%) | TEAE Pain in jaw, subjects (12 Weeks, N = 106, Safety Set): 0 n (%) | TEAE Panic attack, subjects % (12 Weeks, N = 106, Safety Set): (1.9) % | TEAE Panic attack, subjects n (12 Weeks, N = 106, Safety Set): 2 n | TEAE Pelvic pain, subjects % (12 Weeks, N = 106, Safety Set): (0.9) % | TEAE Pelvic pain, subjects n (12 Weeks, N = 106, Safety Set): 1 n | TEAE Post viral fatigue syndrome, subjects (12 Weeks, N = 106, Safety Set): 0 n (%) | TEAE Pregnancy, subjects (12 Weeks, N = 106, Safety Set): 0 n (%) | TEAE Procedural anxiety, subjects % (12 Weeks, N = 106, Safety Set): (0.9) % | TEAE Procedural anxiety, subjects n (12 Weeks, N = 106, Safety Set): 1 n | TEAE Pyrexia, subjects (12 Weeks, N = 106, Safety Set): 0 n (%) | TEAE Relationship Definite, Events (12 Weeks, N = 106, Safety Set): 3 Events | TEAE Relationship Definite, subjects (12 Weeks, N = 106, Safety Set): 3 (2.8) n (%) | TEAE Relationship Not Related (first line, total of Not Related and Unlikely), Events (12 Weeks, N = 106, Safety Set): 65 Events | TEAE Relationship Not Related (first line, total of Not Related and Unlikely), subjects (12 Weeks, N = 106, Safety Set): 38 (35.8) n (%) | TEAE Relationship Not Related (second line, sub-category), Events (12 Weeks, N = 106, Safety Set): 55 Events | TEAE Relationship Not Related (second line, sub-category), subjects (12 Weeks, N = 106, Safety Set): 32 (30.2) n (%) | TEAE Relationship Possible, Events (12 Weeks, N = 106, Safety Set): 29 Events | TEAE Relationship Possible, subjects (12 Weeks, N = 106, Safety Set): 17 (16.0) n (%) | TEAE Relationship Probable, Events (12 Weeks, N = 106, Safety Set): 22 Events | TEAE Relationship Probable, subjects (12 Weeks, N = 106, Safety Set): 16 (15.1) n (%) | TEAE Relationship Unlikely, Events (12 Weeks, N = 106, Safety Set): 10 Events | TEAE Relationship Unlikely, subjects (12 Weeks, N = 106, Safety Set): 9 (8.5) n (%) | TEAE Restless legs syndrome, subjects % (12 Weeks, N = 106, Safety Set): (0.9) % | TEAE Restless legs syndrome, subjects n (12 Weeks, N = 106, Safety Set): 1 n | TEAE Sensitive skin, subjects % (12 Weeks, N = 106, Safety Set): (0.9) % | TEAE Sensitive skin, subjects n (12 Weeks, N = 106, Safety Set): 1 n | TEAE Severity Mild, Events (12 Weeks, N = 106, Safety Set): 92 Events | TEAE Severity Mild, subjects (12 Weeks, N = 106, Safety Set): 50 (47.2) n (%) | TEAE Severity Moderate, Events (12 Weeks, N = 106, Safety Set): 26 Events | TEAE Severity Moderate, subjects (12 Weeks, N = 106, Safety Set): 16 (15.1) n (%) | TEAE Severity Severe, Events (12 Weeks, N = 106, Safety Set): 1 Events | TEAE Severity Severe, subjects (12 Weeks, N = 106, Safety Set): 1 (0.9) n (%) | TEAE Sinus congestion, subjects % (12 Weeks, N = 106, Safety Set): (0.9) % | TEAE Sinus congestion, subjects n (12 Weeks, N = 106, Safety Set): 1 n | TEAE Sinusitis, subjects (12 Weeks, N = 106, Safety Set): 0 n (%) | TEAE Stress, subjects % (12 Weeks, N = 106, Safety Set): (0.9) % | TEAE Stress, subjects n (12 Weeks, N = 106, Safety Set): 1 n | TEAE Thirst, subjects % (12 Weeks, N = 106, Safety Set): (0.9) % | TEAE Thirst, subjects n (12 Weeks, N = 106, Safety Set): 1 n | TEAE Tooth extraction, subjects (12 Weeks, N = 106, Safety Set): 0 n (%) | TEAE Trismus, subjects (12 Weeks, N = 106, Safety Set): 0 n (%) | TEAE Upper respiratory tract infection, subjects % (12 Weeks, N = 106, Safety Set): (5.7) % | TEAE Upper respiratory tract infection, subjects n (12 Weeks, N = 106, Safety Set): 6 n | TEAE Urinary tract infection, subjects % (12 Weeks, N = 106, Safety Set): (0.9) % | TEAE Urinary tract infection, subjects n (12 Weeks, N = 106, Safety Set): 1 n | TEAE Vasectomy, subjects % (12 Weeks, N = 106, Safety Set): (0.9) % | TEAE Vasectomy, subjects n (12 Weeks, N = 106, Safety Set): 1 n | TEAE Vomiting, subjects % (12 Weeks, N = 106, Safety Set): (0.9) % | TEAE Vomiting, subjects n (12 Weeks, N = 106, Safety Set): 1 n | TEAE Wisdom teeth removal, subjects % (12 Weeks, N = 106, Safety Set): (0.9) % | TEAE Wisdom teeth removal, subjects n (12 Weeks, N = 106, Safety Set): 1 n | Adverse event Abnormal dreams, % (Cytisinicline 12 wks (N = 106)): 12.3% | Adverse event Anxiety, % (Cytisinicline 12 wks (N = 106)): 9.4% | Adverse event Fatigue, % (Cytisinicline 12 wks (N = 106)): 5.7% | Adverse event Headache, % (Cytisinicline 12 wks (N = 106)): 6.6% | Adverse event Insomnia, % (Cytisinicline 12 wks (N = 106)): 10.4% | Adverse event Nausea, % (Cytisinicline 12 wks (N = 106)): 4.7% | Adverse event Upper respiratory tract infection, % (Cytisinicline 12 wks (N = 106)): 5.7% | At Least One TEAE (Cytisinicline 12 wks (N = 106)): 54 (50.9) n (%) | Subjects with At Least One TEAE, % (Cytisinicline 12 wks (N = 106)): 50.9% | TEAE relationship: Not Related (Cytisinicline 12 wks (N = 106)): 39 (35.8) n (%) | TEAE relationship: Related (Cytisinicline 12 wks (N = 106)): 30 (28.3) n (%) | Treatment-emergent adverse events: Mild (Cytisinicline 12 wks (N = 106)): 50 (47.2) n (%) | Treatment-emergent adverse events: Moderate (Cytisinicline 12 wks (N = 106)): 16 (15.1) n (%) | Treatment-emergent adverse events: Severe (Cytisinicline 12 wks (N = 106), abnormal dreams): 1 (0.9)* n (%) | At Least One TEAE, subjects % [1]: (50.9) % | At Least One TEAE, subjects n [1]: 54 n | Rate of adverse events (cytisinicline arm, 12 weeks): 50.9% | Adverse event COVID-19, % (human, in vivo): 3 (2.8) % | TEAE COVID-19, subjects % (human, in vivo): (2.8) % | TEAE COVID-19, subjects n (human, in vivo): 3 n | TEAE Influenza, subjects % (human, in vivo): (1.9) % | TEAE Influenza, subjects n (human, in vivo): 2 n | At Least One TEAE, Events [2]: 119 Events | At Least One TEAE, subjects [2]: 54 (50.9) n (%) | TEAE Relationship Related, Events [3]: 54 Events | TEAE Relationship Related, subjects [3]: 30 (28.3) n (%)
